{
  "source": "patent US20150361063A1",
  "about": "“TREATMENT OF AMYLOIDOSIS BY COMPOUNDS THAT REGULATE RETROMER STABILIZATION” (Brandeis University, priority 2011, published 2015)",
  "key": {"[1]": {"tested_on": "animal models for cancer", "details": "three different animal models for cancer; cited from earlier work"}, "[2]": {"molecular_target": "T1, intact retromer complex (Homo sapiens, UniProt Q96QK1+Q9UBQ0)", "T1 construct": "made in house", "experiment": "fluorescence thermal stability assay with reconstituted retromer", "format": "binding", "excerpt": "We set out to screen and identify compounds that stabilized the active retromer complex, thereby preventing VPS35 degradation and increasing the steady-state level of the complex, which may reduce toxic Abeta. To cast our net wider, we set out to perform virtual screening by docking first, and we were able to do that because crystal structures of several retromer components and, more importantly, the VPS35-VPS29 binary complex, had been published. […] After two years of trial and error in overcoming technical obstacles, we finally succeeded in expressing and purifying each of the individual retromer components separately, and then reconstituting the complete complex in vitro.\nWe then obtained tested, in a real fluorescence stability assay using our reconstituted retromer, a total of about 50 compounds from our list of the 200 “top hits” in the docking run. It should be noted that there are a total of 7 sites that were identified from the computational surface mapping approach, and we considered anything with a G-score below −7.00 to be in the “top hits”. Four of the sites contained almost all the top hits, so compounds were actually assayed only if they were in the top 200 by G-score and were predicted to bind well to one of these four sites."}, "[3]": {"tested_on": "mice", "details": "up to 30 mg/kg; cited from earlier work"}},
  "data": [
    {"smiles": "N=C(N)SCc1ccc(CSC(=N)N)s1", "note": "[compound 55712, [5-(carbamimidoylsulfanylmethyl)thiophen-2-yl]methyl carbamimidothioate]", "values": [
      {"measurement": "antitumor activity", "setting": "[1]", "value": "no antitumor activity"},
      {"measurement": "hit in actual experimental assays", "setting": "[2]; compounds from top docking hits of site 2 (VPS35-VPS29 interface)", "value": "positive hits"},
      {"measurement": "stabilization of the intact retromer complex (thermal stability)", "setting": "[2]; increase in thermal stability, reconstituted retromer, FIG. 1", "value": 10, "unit": "degrees Celsius"},
      {"measurement": "toxicity to mice", "setting": "[3]", "value": "not toxic"}
    ]}
  ]
}
